Test results reported in patent publication US20120270237A9, “METHODS FOR THE IDENTIFICATION OF KINASE INTERACTING MOLECULES AND FOR THE PURIFICATION OF KINASE PROTEINS” (Cellzone AG, priority 2009, published 2012).

Tests used:
Test in all cases: Kinobeads competition binding with immobilized CZC25342, mixed HeLa placenta lysates (Example 5, Table 7)
[1] = biological target: T1, kinases from mixed HeLa placenta lysates (Homo sapiens, UniProt Q13557); conditions: kinase CaMK2d; 10 μM free compound; HeLa Placenta lysate mix
T1 construct: capturing and identification of kinases from mixed HeLa placenta lysates; endogenous in cells; host or cells: mixed lysate of HeLa cells and placenta tissue
T1 sequence (Q13557 whole entry): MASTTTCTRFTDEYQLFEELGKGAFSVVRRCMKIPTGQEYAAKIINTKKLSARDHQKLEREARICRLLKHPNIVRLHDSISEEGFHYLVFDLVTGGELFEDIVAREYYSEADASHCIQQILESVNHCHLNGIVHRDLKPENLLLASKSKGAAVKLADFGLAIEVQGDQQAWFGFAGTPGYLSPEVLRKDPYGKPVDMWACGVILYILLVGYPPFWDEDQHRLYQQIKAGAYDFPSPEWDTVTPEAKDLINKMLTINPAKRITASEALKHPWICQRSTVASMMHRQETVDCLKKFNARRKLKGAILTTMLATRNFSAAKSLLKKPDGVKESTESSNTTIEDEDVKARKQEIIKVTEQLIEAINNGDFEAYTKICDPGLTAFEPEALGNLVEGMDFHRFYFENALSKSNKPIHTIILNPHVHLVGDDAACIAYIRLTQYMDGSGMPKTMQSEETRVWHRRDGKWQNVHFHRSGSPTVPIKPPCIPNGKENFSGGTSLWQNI
Experimental: (§1) To one aliquot of cell lysate 10 μM of the free compound (FIG. 2, CZC25342) was added and allowed to bind to proteins in the lysate. Then the affinity matrix with the immobilized compound was added to capture proteins that were not interacting with the previously added free compound. Beads were separated from the lysate and bead bound proteins were eluted in SDS sample buffer and subsequently separated by SDS-Polyacrylamide gel electrophoresis (FIG. 11). Suitable gel bands were cut out and subjected to in-gel proteolytic digestion with trypsin. The second lysate aliquot was processed identically, however no free compound was added (DMSO solvent control). Peptides originating from samples 1 and 2 were labeled with iTRAQ reagents (iTRAQ 114 and iTRAQ 117) and the combined samples were analyzed with a nano-flow liquid chromatography system coupled online to a tandem mass spectrometer (LC-MS/MS) experiment followed by iTRAQ reporter ion quantification in the MS/MS spectra as described in Example 2. The identified kinases are shown in Table 7 including the percent competition values for the sample to which 10 μM free compound had been added. In total of 83 different kinases were identified and competed by different degrees.

[2] = biological target: T2, kinases from mixed HeLa placenta lysates (Homo sapiens, UniProt P48426); conditions: kinase PIP5K2A; 10 μM free compound; HeLa Placenta lysate mix
T2 construct: capturing and identification of kinases from mixed HeLa placenta lysates; endogenous in cells; host or cells: mixed lysate of HeLa cells and placenta tissue
Experimental: as §1

[3] = biological target: T3, kinases from mixed HeLa placenta lysates (Homo sapiens, UniProt P28482); conditions: kinase Erk2; 10 μM free compound; HeLa Placenta lysate mix
T3 construct: capturing and identification of kinases from mixed HeLa placenta lysates; endogenous in cells; host or cells: mixed lysate of HeLa cells and placenta tissue
Experimental: as §1

[4] = biological target: T4, kinases from mixed HeLa placenta lysates (Homo sapiens, UniProt O75460); conditions: kinase IRE1; 10 μM free compound; HeLa Placenta lysate mix
T4 construct: capturing and identification of kinases from mixed HeLa placenta lysates; endogenous in cells; host or cells: mixed lysate of HeLa cells and placenta tissue
Experimental: as §1

[5] = biological target: T5, kinases from mixed HeLa placenta lysates (Homo sapiens, UniProt Q15349); conditions: kinase RSK3; 10 μM free compound; HeLa Placenta lysate mix
T5 construct: capturing and identification of kinases from mixed HeLa placenta lysates; endogenous in cells; host or cells: mixed lysate of HeLa cells and placenta tissue
Experimental: as §1

[6] = biological target: T6, kinases from mixed HeLa placenta lysates (Homo sapiens, UniProt Q2M2I8); conditions: kinase AAK1; 10 μM free compound; HeLa Placenta lysate mix
T6 construct: capturing and identification of kinases from mixed HeLa placenta lysates; endogenous in cells; host or cells: mixed lysate of HeLa cells and placenta tissue
Experimental: as §1

[7] = biological target: T7, kinases from mixed HeLa placenta lysates (Homo sapiens, UniProt Q9Y2U5); conditions: kinase MAP3K2; 10 μM free compound; HeLa Placenta lysate mix
T7 construct: capturing and identification of kinases from mixed HeLa placenta lysates; endogenous in cells; host or cells: mixed lysate of HeLa cells and placenta tissue
T7 sequence (Q9Y2U5 whole entry): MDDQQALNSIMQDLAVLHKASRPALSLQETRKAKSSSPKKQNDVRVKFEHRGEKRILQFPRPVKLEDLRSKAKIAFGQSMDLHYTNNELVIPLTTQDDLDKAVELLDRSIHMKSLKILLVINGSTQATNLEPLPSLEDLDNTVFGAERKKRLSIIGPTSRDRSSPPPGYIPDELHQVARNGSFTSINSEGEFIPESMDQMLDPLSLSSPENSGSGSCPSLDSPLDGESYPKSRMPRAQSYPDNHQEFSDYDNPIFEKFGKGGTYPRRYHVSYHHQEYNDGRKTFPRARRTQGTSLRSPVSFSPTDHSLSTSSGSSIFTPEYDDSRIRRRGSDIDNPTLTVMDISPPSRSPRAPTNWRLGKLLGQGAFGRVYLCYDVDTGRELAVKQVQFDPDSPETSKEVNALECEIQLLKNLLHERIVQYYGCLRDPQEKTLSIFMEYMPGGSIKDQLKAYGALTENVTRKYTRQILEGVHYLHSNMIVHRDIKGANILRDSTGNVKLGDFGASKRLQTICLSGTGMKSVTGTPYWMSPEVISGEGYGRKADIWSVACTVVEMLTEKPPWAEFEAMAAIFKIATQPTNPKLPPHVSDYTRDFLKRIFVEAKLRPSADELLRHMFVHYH
Experimental: as §1

[8] = biological target: T8, kinases from mixed HeLa placenta lysates (Homo sapiens, UniProt P23458); conditions: kinase JAK1; 10 μM free compound; HeLa Placenta lysate mix
T8 construct: capturing and identification of kinases from mixed HeLa placenta lysates; endogenous in cells; host or cells: mixed lysate of HeLa cells and placenta tissue
Experimental: as §1

[9] = biological target: T9, kinases from mixed HeLa placenta lysates (Homo sapiens, UniProt P51812); conditions: kinase RSK2; 10 μM free compound; HeLa Placenta lysate mix
T9 construct: capturing and identification of kinases from mixed HeLa placenta lysates; endogenous in cells; host or cells: mixed lysate of HeLa cells and placenta tissue
Experimental: as §1

[10] = biological target: T10, kinases from mixed HeLa placenta lysates (Homo sapiens, UniProt P07332); conditions: kinase FES; 10 μM free compound; HeLa Placenta lysate mix
T10 construct: capturing and identification of kinases from mixed HeLa placenta lysates; endogenous in cells; host or cells: mixed lysate of HeLa cells and placenta tissue
Experimental: as §1

[11] = biological target: T11, kinases from mixed HeLa placenta lysates (Homo sapiens, UniProt Q96RR4); conditions: kinase CaMKK2; 10 μM free compound; HeLa Placenta lysate mix
T11 construct: capturing and identification of kinases from mixed HeLa placenta lysates; endogenous in cells; host or cells: mixed lysate of HeLa cells and placenta tissue
T11 sequence (Q96RR4 whole entry): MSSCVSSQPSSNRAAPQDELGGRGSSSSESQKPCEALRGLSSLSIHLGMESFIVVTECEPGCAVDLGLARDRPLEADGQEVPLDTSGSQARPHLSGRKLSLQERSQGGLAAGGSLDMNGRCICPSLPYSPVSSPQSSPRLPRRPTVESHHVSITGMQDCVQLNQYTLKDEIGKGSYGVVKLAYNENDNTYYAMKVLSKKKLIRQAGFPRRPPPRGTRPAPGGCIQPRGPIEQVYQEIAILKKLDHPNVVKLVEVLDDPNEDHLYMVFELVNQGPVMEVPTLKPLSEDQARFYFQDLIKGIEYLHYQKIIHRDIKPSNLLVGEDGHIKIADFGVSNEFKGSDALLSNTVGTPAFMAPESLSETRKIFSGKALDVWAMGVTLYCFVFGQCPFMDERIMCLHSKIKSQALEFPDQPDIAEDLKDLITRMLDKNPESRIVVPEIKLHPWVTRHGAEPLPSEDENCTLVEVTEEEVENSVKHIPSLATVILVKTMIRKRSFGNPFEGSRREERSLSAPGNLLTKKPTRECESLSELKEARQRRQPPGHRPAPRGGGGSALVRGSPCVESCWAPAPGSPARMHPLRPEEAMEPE
Experimental: as §1

[12] = biological target: T12, kinases from mixed HeLa placenta lysates (Homo sapiens, UniProt P68400); conditions: kinase CK2a1; 10 μM free compound; HeLa Placenta lysate mix
T12 construct: capturing and identification of kinases from mixed HeLa placenta lysates; endogenous in cells; host or cells: mixed lysate of HeLa cells and placenta tissue
Experimental: as §1

[13] = biological target: T13, kinases from mixed HeLa placenta lysates (Homo sapiens, UniProt Q9H2G2); conditions: kinase SLK; 10 μM free compound; HeLa Placenta lysate mix
T13 construct: capturing and identification of kinases from mixed HeLa placenta lysates; endogenous in cells; host or cells: mixed lysate of HeLa cells and placenta tissue
Experimental: as §1

[14] = biological target: T14, kinases from mixed HeLa placenta lysates (Homo sapiens, UniProt O95382); conditions: kinase MAP3K6; 10 μM free compound; HeLa Placenta lysate mix
T14 construct: capturing and identification of kinases from mixed HeLa placenta lysates; endogenous in cells; host or cells: mixed lysate of HeLa cells and placenta tissue
Experimental: as §1

[15] = biological target: T15, kinases from mixed HeLa placenta lysates (Homo sapiens, UniProt P36897); conditions: kinase TGFbR1; 10 μM free compound; HeLa Placenta lysate mix
T15 construct: capturing and identification of kinases from mixed HeLa placenta lysates; endogenous in cells; host or cells: mixed lysate of HeLa cells and placenta tissue
Experimental: as §1

[16] = biological target: T16, kinases from mixed HeLa placenta lysates (Homo sapiens, UniProt Q8TBX8); conditions: kinase PIP5K2C; 10 μM free compound; HeLa Placenta lysate mix
T16 construct: capturing and identification of kinases from mixed HeLa placenta lysates; endogenous in cells; host or cells: mixed lysate of HeLa cells and placenta tissue
Experimental: as §1

[17] = biological target: T17, kinases from mixed HeLa placenta lysates (Homo sapiens, UniProt O96013); conditions: kinase PAK4; 10 μM free compound; HeLa Placenta lysate mix
T17 construct: capturing and identification of kinases from mixed HeLa placenta lysates; endogenous in cells; host or cells: mixed lysate of HeLa cells and placenta tissue
Experimental: as §1

[18] = biological target: T18, kinases from mixed HeLa placenta lysates (Homo sapiens, UniProt Q9NWZ3); conditions: kinase IRAK4; 10 μM free compound; HeLa Placenta lysate mix
T18 construct: capturing and identification of kinases from mixed HeLa placenta lysates; endogenous in cells; host or cells: mixed lysate of HeLa cells and placenta tissue
T18 sequence (Q9NWZ3 whole entry): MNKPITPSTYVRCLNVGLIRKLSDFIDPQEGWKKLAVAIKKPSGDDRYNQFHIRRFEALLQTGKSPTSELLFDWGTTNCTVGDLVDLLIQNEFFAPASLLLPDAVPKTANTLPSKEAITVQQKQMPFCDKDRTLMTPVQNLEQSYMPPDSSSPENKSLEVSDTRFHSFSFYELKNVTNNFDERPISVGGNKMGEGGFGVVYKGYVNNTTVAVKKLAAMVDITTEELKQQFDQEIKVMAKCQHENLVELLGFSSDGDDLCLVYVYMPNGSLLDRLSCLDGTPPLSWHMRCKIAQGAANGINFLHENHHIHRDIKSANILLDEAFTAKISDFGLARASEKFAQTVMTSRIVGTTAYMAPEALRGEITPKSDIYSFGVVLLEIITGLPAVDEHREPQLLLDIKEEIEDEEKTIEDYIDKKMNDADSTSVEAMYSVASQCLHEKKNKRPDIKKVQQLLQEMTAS
Experimental: as §1

[19] = biological target: T19, kinases from mixed HeLa placenta lysates (Homo sapiens, UniProt P45983); conditions: kinase JNK1; 10 μM free compound; HeLa Placenta lysate mix
T19 construct: capturing and identification of kinases from mixed HeLa placenta lysates; endogenous in cells; host or cells: mixed lysate of HeLa cells and placenta tissue
T19 sequence (P45983 whole entry): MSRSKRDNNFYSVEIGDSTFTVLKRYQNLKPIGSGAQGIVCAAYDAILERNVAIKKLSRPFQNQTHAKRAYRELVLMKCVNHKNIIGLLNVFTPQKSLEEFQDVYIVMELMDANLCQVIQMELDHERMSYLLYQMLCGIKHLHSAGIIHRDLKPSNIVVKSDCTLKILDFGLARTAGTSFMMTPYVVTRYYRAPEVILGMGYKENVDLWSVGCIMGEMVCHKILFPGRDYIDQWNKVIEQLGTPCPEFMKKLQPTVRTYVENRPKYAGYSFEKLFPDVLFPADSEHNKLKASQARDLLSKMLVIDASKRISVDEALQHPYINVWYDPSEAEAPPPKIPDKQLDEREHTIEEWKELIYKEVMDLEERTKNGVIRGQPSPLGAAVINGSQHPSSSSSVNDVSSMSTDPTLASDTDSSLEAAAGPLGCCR
Experimental: as §1

[20] = biological target: T20, kinases from mixed HeLa placenta lysates (Homo sapiens, UniProt Q9Y6R4); conditions: kinase MAP3K4; 10 μM free compound; HeLa Placenta lysate mix
T20 construct: capturing and identification of kinases from mixed HeLa placenta lysates; endogenous in cells; host or cells: mixed lysate of HeLa cells and placenta tissue
Experimental: as §1

[21] = biological target: T21, kinases from mixed HeLa placenta lysates (Homo sapiens, UniProt Q16584); conditions: kinase MLK3; 10 μM free compound; HeLa Placenta lysate mix
T21 construct: capturing and identification of kinases from mixed HeLa placenta lysates; endogenous in cells; host or cells: mixed lysate of HeLa cells and placenta tissue
Experimental: as §1

[22] = biological target: T22, kinases from mixed HeLa placenta lysates (Homo sapiens, UniProt P17252); conditions: kinase PKCa; 10 μM free compound; HeLa Placenta lysate mix
T22 construct: capturing and identification of kinases from mixed HeLa placenta lysates; endogenous in cells; host or cells: mixed lysate of HeLa cells and placenta tissue
Experimental: as §1

[23] = biological target: T23, kinases from mixed HeLa placenta lysates (Homo sapiens, UniProt P53350); conditions: kinase PLK1; 10 μM free compound; HeLa Placenta lysate mix
T23 construct: capturing and identification of kinases from mixed HeLa placenta lysates; endogenous in cells; host or cells: mixed lysate of HeLa cells and placenta tissue
T23 sequence (P53350 whole entry): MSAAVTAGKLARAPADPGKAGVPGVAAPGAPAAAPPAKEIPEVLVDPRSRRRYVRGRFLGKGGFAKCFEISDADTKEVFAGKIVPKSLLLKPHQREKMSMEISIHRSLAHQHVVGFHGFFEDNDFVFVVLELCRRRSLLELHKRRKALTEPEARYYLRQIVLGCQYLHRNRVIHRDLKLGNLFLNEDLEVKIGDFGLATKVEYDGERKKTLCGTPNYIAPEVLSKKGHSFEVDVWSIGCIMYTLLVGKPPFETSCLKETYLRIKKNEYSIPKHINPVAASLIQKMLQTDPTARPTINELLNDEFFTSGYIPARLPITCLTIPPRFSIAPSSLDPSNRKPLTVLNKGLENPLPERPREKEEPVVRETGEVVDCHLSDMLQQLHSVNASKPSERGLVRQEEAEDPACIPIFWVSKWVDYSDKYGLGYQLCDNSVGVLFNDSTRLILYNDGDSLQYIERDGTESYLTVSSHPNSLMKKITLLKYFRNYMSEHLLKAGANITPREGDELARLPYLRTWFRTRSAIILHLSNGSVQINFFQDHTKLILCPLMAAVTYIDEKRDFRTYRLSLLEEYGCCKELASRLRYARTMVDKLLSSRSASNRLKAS
Experimental: as §1

[24] = biological target: T24, kinases from mixed HeLa placenta lysates (Homo sapiens, UniProt O94804); conditions: kinase LOK; 10 μM free compound; HeLa Placenta lysate mix
T24 construct: capturing and identification of kinases from mixed HeLa placenta lysates; endogenous in cells; host or cells: mixed lysate of HeLa cells and placenta tissue
T24 sequence (O94804 whole entry): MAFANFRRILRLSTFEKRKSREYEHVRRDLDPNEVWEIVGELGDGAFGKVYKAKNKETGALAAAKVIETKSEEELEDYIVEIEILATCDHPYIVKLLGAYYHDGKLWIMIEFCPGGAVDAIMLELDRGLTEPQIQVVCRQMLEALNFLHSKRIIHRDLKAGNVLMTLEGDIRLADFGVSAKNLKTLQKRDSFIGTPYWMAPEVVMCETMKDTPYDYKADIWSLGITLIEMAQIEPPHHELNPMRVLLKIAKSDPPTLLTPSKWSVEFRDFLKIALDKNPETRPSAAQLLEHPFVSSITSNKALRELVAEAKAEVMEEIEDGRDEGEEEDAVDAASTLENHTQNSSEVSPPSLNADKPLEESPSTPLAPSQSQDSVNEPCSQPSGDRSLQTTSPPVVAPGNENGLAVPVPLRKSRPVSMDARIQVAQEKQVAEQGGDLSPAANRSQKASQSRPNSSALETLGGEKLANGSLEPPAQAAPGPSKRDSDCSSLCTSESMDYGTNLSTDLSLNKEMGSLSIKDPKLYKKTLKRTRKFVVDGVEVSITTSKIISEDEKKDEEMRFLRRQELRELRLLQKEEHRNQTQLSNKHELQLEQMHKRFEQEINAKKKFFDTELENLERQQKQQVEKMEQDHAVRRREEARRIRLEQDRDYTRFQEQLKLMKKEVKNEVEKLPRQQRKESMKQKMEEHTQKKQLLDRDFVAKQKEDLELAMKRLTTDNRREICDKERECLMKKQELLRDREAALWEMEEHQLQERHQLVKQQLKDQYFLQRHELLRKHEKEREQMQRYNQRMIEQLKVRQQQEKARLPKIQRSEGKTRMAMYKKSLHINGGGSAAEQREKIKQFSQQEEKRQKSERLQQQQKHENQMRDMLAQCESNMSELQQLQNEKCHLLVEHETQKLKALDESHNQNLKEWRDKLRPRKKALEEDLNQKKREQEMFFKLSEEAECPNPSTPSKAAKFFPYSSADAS
Experimental: as §1

Competition % CaMK2d [1]: 40.6% | Competition % PIP5K2A [2]: 98.7% | Competition % Erk2 [3]: 48.5% | Competition % IRE1 [4]: 83.4% | Competition % RSK3 [5]: 95.5% | Competition % AAK1 [6]: 95.6% | Competition % MAP3K2 [7]: 94.7% | Competition % JAK1 [8]: 96.7% | Competition % RSK2 [9]: 95.6% | Competition % FES [10]: 96.9% | Competition % CaMKK2 [11]: 96.3% | Competition % CK2a1 [12]: 95.2% | Competition % SLK [13]: 95.2% | Competition % MAP3K6 [14]: 91.6% | Competition % TGFbR1 [15]: 95.6% | Competition % PIP5K2C [16]: 97.3% | Competition % PAK4 [17]: 94.8% | Competition % IRAK4 [18]: 95.6% | Competition % JNK1 [19]: 84.3% | Competition % MAP3K4 [20]: 92.2% | Competition % MLK3 [21]: 94.9% | Competition % PKCa [22]: 96.4% | Competition % PLK1 [23]: 94.6% | Competition % LOK [24]: 97.7%
SMILES: CS(=O)(=O)Nc1ccccc1Nc1nc(Nc2cccc(OCCN)c2)ncc1F [CZC25342, N-(2-(2-(3-(2-aminoethoxy)phenylamino)-5-fluoropyrimidin-4-ylamino)phenyl)methanesulfonamide]
